Several values for one entry are separate records, joined by “and”; a condition that tells them apart may be missing. Equal entries are not always repeated.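 Values below derive from 48-hour exposures of cells grown in 96-well plates, with endpoints linearly interpolated between the two concentrations bracketing the appropriate inhibition level. GI50: concentration for 50% inhibition of growth. TGI denotes the concentration required for complete inhibition of growth.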
Columns and labels:
Experiment in all cases: NCI-60 cell line screen, 48 h
[1] = tested on: MDA-MB-231 breast
[2] = tested on: DLD-1 colon
[3] = tested on: HCT-116 colon
[4] = tested on: SF-295 CNS
[5] = tested on: MDA-MB-435
[6] = tested on: BT-549 breast
[7] = tested on: PC-3 prostate
[8] = tested on: HCC-2998 colon
[9] = tested on: DMS 273 small cell lung
[10] = tested on: T-47D breast

SMILES: O=c1n(CC2CO2)c(=O)n(CC2CO2)c(=O)n1CC1CO1 (configuration not stated)
- GI50 [1]: 35.1 µM and 52.4 µM
- TGI [1]: 84.8 µM and > 100 µM
- TGI [2]: 143 µM
- GI50 [3]: 12.3 µM and 10.2 µM
- TGI [3]: 43.9 µM and 88.6 µM and > 100 µM
- GI50 [4]: 4.18 µM
- TGI [4]: 34.1 µM and 126 µM and > 100 µM
- TGI [5]: 63.8 µM and > 100 µM
- GI50 [6]: 13.6 µM
- TGI [6]: 67 µM and > 100 µM
- GI50 [7]: 20.3 µM
- TGI [7]: 75.4 µM and 92.2 µM and > 100 µM
- GI50 [8]: 11.4 µM and 21.2 µM
- TGI [8]: 27 µM and 108 µM and > 100 µM
- TGI [9]: 51.4 µM
- GI50 [10]: 7.66 µM and 10 µM
- TGI [10]: 70.3 µM and > 100 µM

— PubChem BioAssay (NCI)
